In this test the target is T1, integrin α4β7 (Homo sapiens, UniProt P13612+P26010).
T1 construct: lymphoma cell strain RPMI-8866 of human B cells, known to express integrin α4β7; endogenous in cells; host or cells: RPMI-8866
T1 sequence (P13612 34-1032): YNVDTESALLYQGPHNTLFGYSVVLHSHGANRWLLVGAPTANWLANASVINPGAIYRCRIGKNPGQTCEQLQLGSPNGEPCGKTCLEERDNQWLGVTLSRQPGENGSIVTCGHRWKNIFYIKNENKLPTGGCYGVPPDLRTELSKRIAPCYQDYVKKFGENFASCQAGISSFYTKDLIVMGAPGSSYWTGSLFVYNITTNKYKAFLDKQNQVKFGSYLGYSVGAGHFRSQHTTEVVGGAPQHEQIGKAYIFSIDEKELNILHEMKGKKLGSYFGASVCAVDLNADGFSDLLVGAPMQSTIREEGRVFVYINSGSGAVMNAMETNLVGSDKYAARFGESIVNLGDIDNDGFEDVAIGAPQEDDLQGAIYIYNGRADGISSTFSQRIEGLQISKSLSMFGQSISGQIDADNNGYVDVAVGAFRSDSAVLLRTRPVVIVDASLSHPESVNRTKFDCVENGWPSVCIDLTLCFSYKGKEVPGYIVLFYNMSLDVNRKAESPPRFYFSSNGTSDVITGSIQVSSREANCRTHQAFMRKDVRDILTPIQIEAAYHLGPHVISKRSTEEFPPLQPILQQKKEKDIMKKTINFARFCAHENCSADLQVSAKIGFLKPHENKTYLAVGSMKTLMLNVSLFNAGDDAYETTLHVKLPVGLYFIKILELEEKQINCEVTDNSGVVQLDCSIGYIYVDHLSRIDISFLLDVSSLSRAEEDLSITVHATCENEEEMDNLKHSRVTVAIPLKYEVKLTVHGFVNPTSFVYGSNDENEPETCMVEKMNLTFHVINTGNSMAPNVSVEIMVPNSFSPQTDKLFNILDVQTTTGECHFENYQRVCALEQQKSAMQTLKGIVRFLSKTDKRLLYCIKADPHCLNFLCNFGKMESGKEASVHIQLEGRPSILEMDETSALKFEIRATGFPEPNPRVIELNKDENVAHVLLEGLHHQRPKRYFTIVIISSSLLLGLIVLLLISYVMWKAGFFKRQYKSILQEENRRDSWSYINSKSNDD
T1 sequence (P26010 20-798): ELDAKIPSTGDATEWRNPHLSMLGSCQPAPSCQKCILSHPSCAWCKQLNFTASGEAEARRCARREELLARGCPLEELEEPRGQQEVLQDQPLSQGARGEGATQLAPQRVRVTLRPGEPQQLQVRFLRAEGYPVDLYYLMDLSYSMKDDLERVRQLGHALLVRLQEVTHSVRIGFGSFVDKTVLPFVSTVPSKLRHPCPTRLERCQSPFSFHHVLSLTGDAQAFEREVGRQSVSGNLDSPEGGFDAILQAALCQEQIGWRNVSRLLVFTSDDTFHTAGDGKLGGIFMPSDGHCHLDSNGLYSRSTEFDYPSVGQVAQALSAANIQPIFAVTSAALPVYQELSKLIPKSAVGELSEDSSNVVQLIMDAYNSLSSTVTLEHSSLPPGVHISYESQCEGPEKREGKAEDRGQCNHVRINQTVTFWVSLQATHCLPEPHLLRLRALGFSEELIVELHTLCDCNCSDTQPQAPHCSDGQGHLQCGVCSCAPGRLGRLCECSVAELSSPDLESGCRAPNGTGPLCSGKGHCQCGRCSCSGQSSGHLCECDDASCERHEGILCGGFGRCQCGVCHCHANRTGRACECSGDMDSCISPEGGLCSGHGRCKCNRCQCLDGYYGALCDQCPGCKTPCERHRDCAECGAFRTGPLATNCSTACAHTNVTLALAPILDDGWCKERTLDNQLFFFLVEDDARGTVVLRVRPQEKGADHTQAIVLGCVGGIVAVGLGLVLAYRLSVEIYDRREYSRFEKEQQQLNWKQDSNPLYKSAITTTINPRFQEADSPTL
As to the kind of experiment: VCAM antagonistic activity (VCAM-1/α4β7 binding assay), RPMI-8866 cells binding to VCAM-1. Conditions: RPMI-8866 cells binding to recombinant human VCAM-1, binding buffer with 4 mM MnCl2; 50% binding inhibition; read-out: Antagonistic Activity IC50 α 4 β 7/VCAM. It counts as cell-based. The protocol: VCAM Antagonistic Activity (VCAM-1/α4β7 Binding Assay)
The capacity of a test substance antagonistic to the binding of lymphoma cell strain RPMI-8866 of human B cells, known to express integrin α4β7, to VCAM-1 was determined. 100 μl/well of a solution (500 ng/ml) of recombinant human VCAM-1 (R & D systems) solution diluted with buffer A (0.1 M NaHCO3, pH 9.6) was added to a micro titer plate having 96 wells (Nunc Maxisorp). After the incubation at 4° C. overnight, unbound VCAM-1 was removed by washing once with PBS. After completion of the washing, a buffer (buffer B) obtained by diluting Block Ace (Dainippon Pharmaceutical Co., Ltd.) with PBS to ¼ concentration was added in an amount of 150 μl/well. After the incubation at room temperature for 1 hour, buffer B was removed and the plate was washed with PBS once.
RPMI-8866 cells were incubated in Dulbecco modified Eagle medium containing 10 μg/ml of Calcein-AM (Wako Pure Chemical Industries, Ltd.) (SIGMA, hereinafter referred to as “DMEM”) at 37° C. for 30 minutes to label with fluorescence. The cells were again suspended in a binding buffer (20 mM HEPES, DMEM containing 0.1% BSA) containing 4 mM of MnCl2.
50 μl of a test substance of various concentrations obtained by the dilution with the binding buffer was added to the plate. Immediately thereafter, 50 μl (final volume: 100 μl/well) of the fluorescent RPMI-8866 cells (4×10^6 cells/ml) were added thereto, and they were incubated at room temperature for 30 minutes. After the shaking on a plate shaker (IKA MTS-4) at 800 rpm for 30 seconds, the solution was immediately removed to remove the unbound cells. The fluorescence quantity of the bound cells remaining in the wells was determined with a fluorescent plate reader (Wallac 1420 ARVO multi-label counter) (filter excitation wave length: 485 nm, emission wave length: 535 nm). The fluorescent strength thus obtained is proportional to the number of RPMI-8866 cells bound to VCAM-1 and remaining on the plate. The binding rate of each test material in various concentrations was determined while the fluorescent strength of the test material-free well was determined to be 100%. The concentration IC50 for the 50% binding inhibition was calculated.
Regarding `O=C(N[C@@H](Cc1ccc(N2C(=O)c3ccccc3C2=O)cc1)C(=O)O)c1c(Cl)cccc1Cl` [Example 1], the IC50 came to 9.7 nM.
For `Cc1ccc2c(c1)C(=O)N(c1ccc(C[C@H](NC(=O)c3c(Cl)cccc3Cl)C(=O)O)cc1)C2=O` [Example 6], the IC50 was 11 nM.
With `O=C(N[C@@H](Cc1ccc(N2C(=O)c3ccc([N+](=O)[O-])cc3C2=O)cc1)C(=O)O)c1c(Cl)cccc1Cl` [Example 9] the figure was 24 nM; with `O=C(N[C@@H](Cc1ccc(N2C(=O)Cc3ccccc3C2=O)cc1)C(=O)O)c1c(Cl)cccc1Cl` [Example 15], 34 nM.
With `O=C(N[C@@H](Cc1ccc(N2C(=O)c3cccc4cccc(c34)C2=O)cc1)C(=O)O)c1c(Cl)cccc1Cl` [Example 16] the figure was 21 nM; with `O=C(N[C@@H](Cc1ccc(N2Cc3ccccc3C2=O)cc1)C(=O)O)c1c(Cl)cccc1Cl` [Example 17], 140 nM.
On to `O=C(N[C@@H](Cc1ccc(N2CC=CC2=O)cc1)C(=O)O)c1c(Cl)cccc1Cl` [Example 25], for which the IC50 came out at 160 nM.
The result for `O=C(N[C@@H](Cc1ccc(N2CC=CCC2=O)cc1)C(=O)O)c1c(Cl)cccc1Cl` [Example 26] reads 80 nM; that for `O=C(N[C@@H](Cc1ccc(N2CC=CCCC2=O)cc1)C(=O)O)c1c(Cl)cccc1Cl` [Example 27], 73 nM.
With `Cc1ccc(C)c2c1C(=O)N(c1ccc(C[C@H](NC(=O)c3c(Cl)cccc3Cl)C(=O)O)cc1)C2=O` [Example 30] the figure was 46 nM; with `CN(C)C(=O)c1ccc2c(c1)C(=O)N(c1ccc(C[C@H](NC(=O)c3c(Cl)cccc3Cl)C(=O)O)cc1)C2=O` [Example 33], 8.9 nM; with `O=C(N[C@@H](Cc1ccc(N2C(=O)C3=C(CCCC3)C2=O)cc1)C(=O)O)c1c(Cl)cccc1Cl` [Example 37], 5.8 nM.
With `O=C(N[C@@H](Cc1ccc(N2C(=O)C3=C(SCCS3)C2=O)cc1)C(=O)O)c1c(Cl)cccc1Cl` [Example 38] the figure was 13 nM; with `O=C(N[C@@H](Cc1ccc(N2C(=O)[C@@H]3CCCC[C@H]3C2=O)cc1)C(=O)O)c1c(Cl)cccc1Cl` [Example 40], 18 nM.
For the compound `O=C(N[C@@H](Cc1ccc(N2C(=O)[C@@H]3[C@H](C2=O)[C@@H]2C=C[C@H]3C2)cc1)C(=O)O)c1c(Cl)cccc1Cl` [Example 42], the IC50 worked out at 21 nM.
The result for `CC1CCC2C(=O)N(c3ccc(C[C@H](NC(=O)c4c(Cl)cccc4Cl)C(=O)O)cc3)C(=O)C2C1` (some centres unmarked) [Example 43] reads 43 nM.
With `O=C(N[C@@H](Cc1ccc(N2C(=O)[C@@H]3[C@H](C2=O)[C@@H]2C=C[C@H]3CC2)cc1)C(=O)O)c1c(Cl)cccc1Cl` [Example 44], the IC50 was determined as 39 nM.
With `O=C(N[C@@H](Cc1ccc(N2C(=O)[C@H]3CC=CC[C@H]3C2=O)cc1)C(=O)O)c1c(Cl)cccc1Cl` [Example 45], the IC50 was 19 nM.
With `O=C(N[C@@H](Cc1ccc(N2C(=O)C3CC3C2=O)cc1)C(=O)O)c1c(Cl)cccc1Cl` (some centres unmarked) [Example 46] the figure was 42 nM.
As for `O=C(N[C@@H](Cc1ccc(N2C(=O)[C@H]3CC[C@H](c4ccccc4)C[C@H]3C2=O)cc1)C(=O)O)c1c(Cl)cccc1Cl` [Example 47], the IC50 is 92 nM.
With `O=C(N[C@@H](Cc1ccc(N2C(=O)CC3(CCCC3)CC2=O)cc1)C(=O)O)c1c(Cl)cccc1Cl` [Example 48], the IC50 was found to be 21 nM.
The result for `CC1(C)[C@H]2CC[C@]1(C)C(=O)N(c1ccc(C[C@H](NC(=O)c3c(Cl)cccc3Cl)C(=O)O)cc1)C2=O` [Example 49] reads 60 nM; that for `Cc1cccc2c1C(=O)N(c1ccc(C[C@H](NC(=O)c3c(Cl)cncc3Cl)C(=O)O)cc1)C2=O` [Example 59], 10 nM.
The result for `Nc1cccc2c1C(=O)N(c1ccc(C[C@H](NC(=O)c3c(Cl)cccc3Cl)C(=O)O)cc1)C2=O` [Example 71] reads 230 nM; that for `CCOc1cccc2c1C(=O)N(c1ccc(C[C@H](NC(=O)c3c(Cl)cccc3Cl)C(=O)O)cc1)C2=O` [Example 73], 8.5 nM.
With `O=C(N[C@@H](Cc1ccc(N2C(=O)c3cccc(OCc4ccccc4)c3C2=O)cc1)C(=O)O)c1c(Cl)cccc1Cl` [Example 74] the figure was 110 nM.
On to `CCCCOc1cccc2c1C(=O)N(c1ccc(C[C@H](NC(=O)c3c(Cl)cccc3Cl)C(=O)O)cc1)C2=O` [Example 75], for which the IC50 turned out to be 55 nM.
With `O=C(N[C@@H](Cc1ccc(N2C(=O)c3ccc(O)cc3C2=O)cc1)C(=O)O)c1c(Cl)cccc1Cl` [Example 77] the figure was 73 nM; with `COc1ccc2c(c1)C(=O)N(c1ccc(C[C@H](NC(=O)c3c(Cl)cccc3Cl)C(=O)O)cc1)C2=O` [Example 78], 42 nM; with `CCOc1ccc2c(c1)C(=O)N(c1ccc(C[C@H](NC(=O)c3c(Cl)cccc3Cl)C(=O)O)cc1)C2=O` [Example 79], 86 nM.
With `O=C(N[C@@H](Cc1ccc(N2C(=O)c3ccc(OCc4ccccc4)cc3C2=O)cc1)C(=O)O)c1c(Cl)cccc1Cl` [Example 80] the figure was 80 nM.
With `O=C(N[C@@H](Cc1ccc(N2C(=O)Cc3ccccc3CC2=O)cc1)C(=O)O)c1c(Cl)cccc1Cl` [Example 82] the figure was 900 nM; with `Cc1cccc2c1C(=O)N(c1ccc(C[C@H](NC(=O)c3c(Cl)cc(-c4nnn[nH]4)cc3Cl)C(=O)O)cc1)C2=O` [Example 83, (2S)-2-(2,6-dichloro-4-tetrazolyl-benzoylamino)-3-[4-(4-methyl-1,3-dioxo-1,3-dihydroisoindole-2-yl)phenyl] Propionic Acid], 0.55 nM; with `Cc1cccc2c1C(=O)N(c1ccc(C[C@H](NC(=O)c3c(Cl)cc(NS(C)(=O)=O)cc3Cl)C(=O)O)cc1)C2=O` [Example 84], 0.6 nM.
With `CC(=O)C1Cc2ccccc2C(=O)N1c1ccc(C[C@H](NC(=O)c2c(Cl)cccc2Cl)C(=O)O)cc1` (some centres unmarked) [Example 86], the IC50 was 39 nM.

The record behind these values is patent US7452905B2, “Phenylalanine derivatives” (Ajinomoto Co., Inc., priority 2000, dated 2008).
